# Experimental data taken from US7892764B2, “System for seizure suppression” (priority 2006, dated 2011).
# Tested on: mouse hippocampal slices
# Test: Basal synaptic transmission: fEPSP in hippocampal CA1 region in the presence of Mg2+
# Format: cell-based
# Conditions: amiloride 100 μM
# Procedure: FIG. 6. Representative field-EPSPs and summary data showing the lack of inhibition by amiloride on basal synaptic transmission. In the presence of Mg^2+ (1.0 mM), stimulation of Schaffer collaterals induced field excitatory postsynaptic potential (fEPSP) in the CA1 region of the hippocampus.
# Preparation of hippocampal slices and brain slice recording. Hippocampal slices were obtained from 8- to 10-week-old mice. The protocol for brain-slice recording was approved by the Institutional Animal Care and Use Committee of Legacy Research. Animals were deeply anesthetized with isoflurane and decapitated. Brains were quickly removed and placed in ice-cold solution that contained: 125 mM sucrose, 2.5 mM KCl, 26 mM NaHCO3, 1.25 mM NaHPO4, 6.0 mM […], 0.5 mM CaCl2, and 10 mM glucose, and was saturated with 95% O2 and 5% CO2 (pH 7.4). […]
# Following ˜60 min of incubation at room temperature, individual slices were transferred to a submerged slice chamber with a volume of 0.5 mL (Warner Instruments, Hamden, Conn.) and perfused with oxygenated aCSF (35° C.) at a rate of 3-4 mL/min. […] The population spike and the field excitatory postsynaptic potentials (fEPSP) were recorded in stratum pyramidale and striatum radiatum of hippocampal CA1 region, by stimulating Schaffer Collaterals.
smiles,measurement,value
"NC(N)=NC(=O)c1nc(Cl)c(N)nc1N [amiloride, 3,5-diamino-6-chloro-N(diaminomethylidene)pyrazine-2-carboxamide]",effect on amplitude or slope of normal fEPSP,did not affect
